What was measured:
human plasma kallikrein = human plasma kallikrein (Homo sapiens, UniProt P03952); test: Determination of the plasma kallikrein activity (fluorogenic peptide substrate, AMC cleavage); assay type: biochemical; conditions: plasma kallikrein from Kordia 0.6 nM; substrate H-Pro-Phe-Arg-AMC; 30 min at 22° C.; read-out: IC50 [nM] (Table B, plasma kallikrein inhibition)
Description: (§1) To determine the plasma kallikrein inhibition of the substances according to the invention, a biochemical test system is used which utilizes the reaction of a peptidic plasma kallikrein substrate to determine the enzymatic activity of human plasma kallikrein. Here, plasma kallikrein cleaves from the peptic plasma kallikrein substrate the C-terminal aminomethylcoumarin (AMC), the fluorescence of which is measured. The determinations are carried out in microtitre plates.
Test substances are dissolved in dimethyl sulphoxide and serially diluted in dimethyl sulphoxide (3000 μM to 0.0078 μM; resulting final concentrations in the test: 50 μM to 0.00013 μM). 1 μl of the diluted substance solutions is placed into each of the wells of white microtitre plates from Greiner (384 wells). 20 μl of assay buffer (50 mM Tris/HCl pH 7.4; 100 mM sodium chloride solution; 5 mM of calcium chloride solution; 0.1% of bovine serum albumin) and 20 μl of plasma kallikrein from Kordia (0.6 nM in assay buffer) are then added successively. After 15 min of incubation, the enzyme reaction is started by addition of 20 μl of the substrate H-Pro-Phe-Arg-AMC dissolved in assay buffer (10 μM in assay buffer) from Bachem, the mixture is incubated at room temperature (22° C.) for 30 min and fluorescence is then measured (excitation: 360 nm, emission: 460 nm). The measured emissions of the test batches with test substance are compared to those of control batches without test substance (only dimethyl sulphoxide instead of test substance in dimethyl sulphoxide), and IC50 values are calculated from the concentration/activity relationships.

human factor XIa = target: T1, human factor XIa (Homo sapiens, UniProt P03951); test: Measurement of FXIa inhibition (fluorogenic peptide substrate, AMC cleavage); assay type: biochemical; conditions: factor XIa from Kordia 0.45 nM; substrate Boc-Glu(OBzl)-Ala-Arg-AMC; 30 min at 22° C.
T1 construct: purchased Kordia
T1 sequence (P03951 388-625 limits assumed): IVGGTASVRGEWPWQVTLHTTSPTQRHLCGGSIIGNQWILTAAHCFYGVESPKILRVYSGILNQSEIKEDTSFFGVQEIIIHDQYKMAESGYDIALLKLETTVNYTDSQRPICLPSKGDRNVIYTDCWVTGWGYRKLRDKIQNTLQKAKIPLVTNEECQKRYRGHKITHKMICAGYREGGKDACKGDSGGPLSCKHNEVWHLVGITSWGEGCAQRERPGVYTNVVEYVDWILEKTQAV
T1 sequence (P03951 19-387 partner limits assumed): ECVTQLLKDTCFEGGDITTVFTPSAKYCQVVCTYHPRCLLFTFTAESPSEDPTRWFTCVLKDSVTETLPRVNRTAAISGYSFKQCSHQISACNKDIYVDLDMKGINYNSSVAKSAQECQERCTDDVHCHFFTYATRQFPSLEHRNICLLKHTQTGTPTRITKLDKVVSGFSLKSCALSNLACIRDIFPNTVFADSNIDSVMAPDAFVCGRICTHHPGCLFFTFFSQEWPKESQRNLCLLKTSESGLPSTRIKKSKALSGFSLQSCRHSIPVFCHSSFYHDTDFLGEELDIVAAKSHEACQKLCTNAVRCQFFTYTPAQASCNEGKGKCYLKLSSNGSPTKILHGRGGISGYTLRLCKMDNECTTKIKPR
Description: as §1, with “The factor XIa” for “To determine the plasma kallikrein”, “invention is determined using” for “invention,”, “system” for “system is used”, “factor XIa” for “plasma kallikrein”, “factor XIa.” for “plasma kallikrein.”
1 μl of the diluted substance solutions is placed into each of the wells of white microtitre plates from Greiner (384 wells). […] After 15 min of incubation, the enzyme reaction is started by addition of 20 μl of the factor XIa substrate Boc-Glu(OBzl)-Ala-Arg-AMC dissolved in assay buffer (10 μM in assay buffer) from Bachem, the mixture is incubated at room temperature (22° C.) for 30 min and fluorescence is then measured (excitation: 360 nm, emission: 460 nm). The measured emissions of the test batches with test substance are compared to those of control batches without test substance (only dimethyl sulphoxide instead of test substance in dimethyl sulphoxide), and IC50 values are calculated from the concentration/activity relationships.

Sequence of human plasma kallikrein (P03952 391-638 limits assumed): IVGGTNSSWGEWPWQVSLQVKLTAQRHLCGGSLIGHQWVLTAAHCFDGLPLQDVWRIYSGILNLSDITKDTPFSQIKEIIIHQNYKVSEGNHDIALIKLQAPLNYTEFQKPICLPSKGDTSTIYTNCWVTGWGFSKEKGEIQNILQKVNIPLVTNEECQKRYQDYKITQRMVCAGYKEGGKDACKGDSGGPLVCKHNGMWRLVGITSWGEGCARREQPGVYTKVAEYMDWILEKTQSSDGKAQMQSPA
Sequence of human plasma kallikrein (P03952 20-390 partner limits assumed): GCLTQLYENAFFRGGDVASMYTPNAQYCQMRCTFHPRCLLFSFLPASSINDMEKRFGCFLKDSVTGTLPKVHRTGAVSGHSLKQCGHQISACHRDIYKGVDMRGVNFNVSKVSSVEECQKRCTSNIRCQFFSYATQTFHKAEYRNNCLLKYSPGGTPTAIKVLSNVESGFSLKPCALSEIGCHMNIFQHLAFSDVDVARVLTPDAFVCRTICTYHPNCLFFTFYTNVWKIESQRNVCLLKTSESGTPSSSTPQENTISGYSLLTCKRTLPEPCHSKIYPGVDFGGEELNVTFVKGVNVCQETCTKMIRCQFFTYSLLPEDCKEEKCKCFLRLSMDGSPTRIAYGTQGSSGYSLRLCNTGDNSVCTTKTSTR

| SMILES | IC50 (human plasma kallikrein) [nM] | IC50 (human factor XIa) [nM] |
| --- | --- | --- |
| COc1cn(C(Cc2cccnc2)C(=O)Nc2ccc(C(N)=O)c(F)c2)c(=O)cc1-c1cc(Cl)ccc1C#N (stereo not drawn) [Example 9] | 6 | 11 |
| CCC(C(=O)Nc1ccc(C(N)=O)c(F)c1)n1cc(OC)c(-c2cc(Cl)ccc2C#N)cc1=O (stereo not drawn) [Example 7] | 36 | 25 |
| N#Cc1ccc(Cl)cc1-c1cc(=O)n(C(Cc2cocn2)C(=O)Nc2ccc(C(N)=O)c(F)c2)cc1Cl (stereo not drawn) [Example 2] | 260 | 190 |
| COc1cn(C(Cc2noc(C)n2)C(=O)Nc2ccc(C(N)=O)c(F)c2)c(=O)cc1-c1cc(Cl)ccc1C#N (racemic) [Example 33, 4-({2-[4-(5-Chloro-2-cyanophenyl)-5-methoxy-2-oxopyridin-1(2H)-yl]-3-(5-methyl-1,2,4-oxadiazol-3-yl)propanoyl}amino)-2-fluorobenzamide] | 10 | 15 |
| COc1cn(C(Cc2ccccn2)C(=O)Nc2ccc(C(N)=O)c(F)c2)c(=O)cc1-c1cc(Cl)ccc1F (stereo not drawn) [Example 17] | 230 | 290 |
| CNC(=O)c1ccc(NC(=O)C(C[C@@H]2CCCCO2)n2cc(Cl)c(-c3cc(Cl)ccc3C#N)cc2=O)cc1F (stereo partly drawn) [Example 15] | 260 | 28 |
| COc1cn(C(Cc2ccccn2)C(=O)Nc2ccc(C(N)=O)c(F)c2)c(=O)cc1-c1cc(Cl)ccc1C#N (single isomer, unassigned) [Example 28, 4-({2-[4-(5-Chloro-2-cyanophenyl)-5-methoxy-2-oxopyridin-1(2H)-yl]-3-(pyridin-2-yl)propanoyl}amino)-2-fluorobenzamide] | 4.8 | 6.6 |
| COc1cn(C(Cc2ccccn2)C(=O)Nc2ccc(C(N)=O)c(F)c2)c(=O)cc1-c1cc(Cl)ccc1C(F)F (racemic) [Example 34, 4-{[2-{4-[5-Chloro-2-(difluoromethyl)phenyl]-5-methoxy-2-oxopyridin-1(2H)-yl}-3-(pyridin-2-yl)propanoyl}amino]-2-fluorobenzamide] | 53 | 42 |
| COc1cn(C(CCOCC(F)F)C(=O)Nc2ccc(C(N)=O)c(F)c2)c(=O)cc1-c1cc(Cl)ccc1C#N (racemic) [Example 22, 4-({2-[4-(5-Chloro-2-cyanophenyl)-5-methoxy-2-oxopyridin-1(2H)-yl]-4-(2,2-difluoroethoxy)-butanoyl}amino)-2-fluorobenzamide] | 12 | 21 |
| CCOCCC(C(=O)Nc1ccc(C(N)=O)c(F)c1)n1cc(OC)c(-c2cc(Cl)ccc2C#N)cc1=O (racemic) [Example 18, 4-({2-[4-(5-Chloro-2-cyanophenyl)-5-methoxy-2-oxopyridin-1(2H)-yl]-4-ethoxybutanoyl}amino)-2-fluorobenzamide] | 11 | 14 |
| CCC(C(=O)Nc1ccc(C(=O)NC)c(Cl)c1)n1cc(OC)c(-c2cc(Cl)ccc2C#N)cc1=O (racemic) [Example 27, 2-Chloro-4-({2-[4-(5-chloro-2-cyanophenyl)-5-methoxy-2-oxopyridin-1(2H)-yl]butanoyl}amino)-N-methylbenzamide] | 71 | 50 |
| COc1cn(C(CCOC(C)(C)C)C(=O)Nc2ccc(C(N)=O)c(F)c2)c(=O)cc1-c1cc(Cl)ccc1C#N (racemic) [Example 21, 4-({4-tert-Butoxy-2-[4-(5-chloro-2-cyanophenyl)-5-methoxy-2-oxopyridin-1(2H)-yl]butanoyl}amino)-2-fluorobenzamide] | 6.8 | 7.4 |
| COCCC(C(=O)Nc1ccc(C(N)=O)c(F)c1)n1cc(OC)c(-c2cc(C)ccc2C#N)cc1=O (single isomer, unassigned) [Example 24, 4-({2-[4-(2-Cyano-5-methylphenyl)-5-methoxy-2-oxopyridin-1(2H)-yl]-4-methoxybutanoyl}amino)-2-fluorobenzamide] | 25 | 27 |
| COc1cn(C(CCOC2CCC2)C(=O)Nc2ccc(C(N)=O)c(F)c2)c(=O)cc1-c1cc(Cl)ccc1C#N (racemic) [Example 20, 4-({2-[4-(5-Chloro-2-cyanophenyl)-5-methoxy-2-oxopyridin-1(2H)-yl]-4-(cyclobutyloxy)-butanoyl}amino)-2-fluorobenzamide] | 6.1 | 7.4 |
| COc1cn(C(Cc2cnco2)C(=O)Nc2ccc(C(N)=O)c(F)c2)c(=O)cc1-c1cc(Cl)ccc1C#N (stereo not drawn) [Example 5] | 14 | 14 |
| CNC(=O)c1ccc(NC(=O)C(Cc2ccccn2)n2cc(OC)c(-c3cc(Cl)ccc3C#N)cc2=O)cc1F (racemic) [Example 30, 4-({2-[4-(5-Chloro-2-cyanophenyl)-5-methoxy-2-oxopyridin-1(2H)-yl]-3-(pyridin-2-yl)propanoyl}amino)-2-fluoro-N-methylbenzamide] | 8.2 | 9.7 |

Second part, the compound after the results:

| IC50 (human plasma kallikrein) [nM] | IC50 (human factor XIa) [nM] | SMILES |
| --- | --- | --- |
| 12 | 19 | CNC(=O)c1ccc(NC(=O)C(Cc2ccn(C)n2)n2cc(OC)c(-c3cc(C)ccc3C#N)cc2=O)cc1F (racemic) [Example 44, 4-({2-[4-(2-Cyano-5-methylphenyl)-5-methoxy-2-oxopyridin-1(2H)-yl]-3-(1-methyl-1H-pyrazol-3-yl)propanoyl}amino)-2-fluoro-N-methylbenzamide] |
| 11 | 13 | COc1cn(C(Cc2ncco2)C(=O)Nc2ccc(C(N)=O)c(F)c2)c(=O)cc1-c1cc(Cl)ccc1C#N (racemic) [Example 36, 4-({2-[4-(5-Chloro-2-cyanophenyl)-5-methoxy-2-oxopyridin-1(2H)-yl]-3-(1,3-oxazol-2-yl)propanoyl}amino)-2-fluorobenzamide] |
| 38 | 70 | COc1cn(C(Cc2nnc(C3CC3)o2)C(=O)Nc2ccc(C(N)=O)c(F)c2)c(=O)cc1-c1cc(Cl)ccc1C#N (racemic) [Example 39, 4-({2-[4-(5-Chloro-2-cyanophenyl)-5-methoxy-2-oxopyridin-1(2H)-yl]-3-(5-cyclopropyl-1,3,4-oxadiazol-2-yl)propanoyl}amino)-2-fluorobenzamide] |
| 38 | 51 | COc1cn(C(CC2=NOCC2)C(=O)Nc2ccc(C(N)=O)c(F)c2)c(=O)cc1-c1cc(Cl)ccc1C#N (racemic) [Example 42, 4-({2-[4-(5-Chloro-2-cyanophenyl)-5-methoxy-2-oxopyridin-1(2H)-yl]-3-(4,5-dihydro-1,2-oxazol-3-yl)propanoyl}amino)-2-fluorobenzamide] |
| 8.3 | 12 | COc1cn(C(Cc2ccn(C)n2)C(=O)Nc2ccc(C(N)=O)c(F)c2)c(=O)cc1-c1cc(C)ccc1C#N (racemic) [Example 43, 4-({2-[4-(2-Cyano-5-methylphenyl)-5-methoxy-2-oxopyridin-1(2H)-yl]-3-(1-methyl-1H-pyrazol-3-yl)propanoyl}amino)-2-fluorobenzamide] |
| 4 | 6.4 | COc1cn(C(Cc2cnco2)C(=O)Nc2ccc(C(N)=O)c(F)c2)c(=O)cc1-c1cc(Cl)ccc1C#N (single isomer, unassigned) [Example 45, 4-({2-[4-(5-Chloro-2-cyanophenyl)-5-methoxy-2-oxopyridin-1(2H)-yl]-3-(1,3-oxazol-5-yl)propanoyl}amino)-2-fluorobenzamide] |
| 27 | 34 | COc1cn(C(Cc2cnco2)C(=O)Nc2cc(F)c(C(N)=O)c(F)c2)c(=O)cc1-c1cc(Cl)ccc1C#N (racemic) [Example 40, 4-({2-[4-(5-Chloro-2-cyanophenyl)-5-methoxy-2-oxopyridin-1(2H)-yl]-3-(1,3-oxazol-5-yl)propanoyl}amino)-2,6-difluorobenzamide] |
| 6.2 | 12 | COc1cn(C(Cc2cc(C)on2)C(=O)Nc2ccc(C(N)=O)c(F)c2)c(=O)cc1-c1cc(Cl)ccc1C#N (racemic) [Example 37, 4-({2-[4-(5-Chloro-2-cyanophenyl)-5-methoxy-2-oxopyridin-1(2H)-yl]-3-(5-methyl-1,2-oxazol-3-yl)propanoyl}amino)-2-fluorobenzamide] |

Source: patent US20170298052A1, “SUBSTITUTED OXOPYRIDINE DERIVATIVES” (BAYER PHARMA AKTIENGESELLSCHAFT, priority 2014, published 2017)
